Active and inactive are the calls of the source. The rule behind the calls is not given here.
Assays:
Chymase (Homo sapiens) = target: T1, Chymase (Homo sapiens) (UniProt P23946); test: Second order rate constant for the inhibition of human skin chymase.
T1 sequence (whole entry): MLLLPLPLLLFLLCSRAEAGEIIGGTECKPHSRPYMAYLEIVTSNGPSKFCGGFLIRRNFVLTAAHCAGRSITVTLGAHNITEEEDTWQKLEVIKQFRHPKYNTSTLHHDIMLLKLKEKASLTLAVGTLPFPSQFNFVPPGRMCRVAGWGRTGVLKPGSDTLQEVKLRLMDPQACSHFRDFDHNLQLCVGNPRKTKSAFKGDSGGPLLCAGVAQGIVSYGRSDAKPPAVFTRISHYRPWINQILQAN

[1] = target: T2, Cathepsin G (Homo sapiens) (UniProt P08311); test: Second order rate constant for the inhibition of leukocyte Cathepsin G (Cat G).
T2 sequence (whole entry): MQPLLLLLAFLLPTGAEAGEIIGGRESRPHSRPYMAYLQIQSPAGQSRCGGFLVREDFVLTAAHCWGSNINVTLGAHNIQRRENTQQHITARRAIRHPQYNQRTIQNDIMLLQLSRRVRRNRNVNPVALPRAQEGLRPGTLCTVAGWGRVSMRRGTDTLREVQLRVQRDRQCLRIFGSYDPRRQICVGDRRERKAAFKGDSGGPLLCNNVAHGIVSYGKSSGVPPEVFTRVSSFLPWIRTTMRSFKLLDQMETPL

K inact/Ki (Chymase (Homo sapiens)) | K inact/Ki [1] [M⁻¹ s⁻¹] | SMILES
38500 M⁻¹ s⁻¹ | 12700 | CC(O)C(=O)OCN1C(=O)C(Cc2ccccc2)N(Cc2ccccc2)S1(=O)=O (configuration not stated)
45700 M⁻¹ s⁻¹ | 22700 | O=C(O)CC(=O)OCN1C(=O)C(Cc2ccccc2)N(Cc2ccccc2)S1(=O)=O (configuration not stated)
39900 M⁻¹ s⁻¹ | 12300 | O=C(OCN1C(=O)C(Cc2ccccc2)N(Cc2ccccc2)S1(=O)=O)C(O)c1ccccc1 (configuration not stated)
21800 M⁻¹ s⁻¹ | 10600 | CC(=O)OCN1C(=O)C(Cc2ccccc2)N(Cc2ccccc2)S1(=O)=O (configuration not stated)
13500 M⁻¹ s⁻¹ | 20700 | O=C(O)c1cccc(S(=O)(=O)CN2C(=O)C(Cc3ccccc3)N(Cc3ccccc3)S2(=O)=O)c1 (configuration not stated)
10800 M⁻¹ s⁻¹ | 25200 | O=C(O)CS(=O)(=O)CN1C(=O)C(Cc2ccccc2)N(Cc2ccccc2)S1(=O)=O (configuration not stated)
12500 M⁻¹ s⁻¹ | 11200 | O=C1C(Cc2ccccc2)N(Cc2ccccc2)S(=O)(=O)N1CS(=O)(=O)c1ccccc1 (configuration not stated)
6250 M⁻¹ s⁻¹ | 430 | CN1C(Cc2ccccc2)C(=O)N(CSc2nc3ccccc3o2)S1(=O)=O (configuration not stated)
186000 M⁻¹ s⁻¹ | 66700 | O=C(O)c1ccc(S(=O)(=O)CN2C(=O)C(Cc3ccccc3)N(Cc3ccccc3)S2(=O)=O)cc1 (configuration not stated)
23400 M⁻¹ s⁻¹ | 17400 | O=C(O)CCS(=O)(=O)CN1C(=O)C(Cc2ccccc2)N(Cc2ccccc2)S1(=O)=O (configuration not stated)
5090 M⁻¹ s⁻¹ | 490 | O=C1C(Cc2ccccc2)N(Cc2ccccc2)S(=O)(=O)N1CSc1nnc(-c2ccccc2)o1 (configuration not stated)
4600 M⁻¹ s⁻¹ | 8500 | CS(=O)(=O)CN1C(=O)C(Cc2ccccc2)N(Cc2ccccc2)S1(=O)=O (configuration not stated)
30500 M⁻¹ s⁻¹ | 12800 | O=C(CO)OCN1C(=O)C(Cc2ccccc2)N(Cc2ccccc2)S1(=O)=O (configuration not stated)
14700 M⁻¹ s⁻¹ | 15700 | Nc1ccc2nc(SCN3C(=O)C(Cc4ccccc4)N(Cc4ccccc4)S3(=O)=O)sc2c1 (configuration not stated)
5430 M⁻¹ s⁻¹ | 17100 | O=C1C(Cc2ccccc2)N(Cc2ccccc2)S(=O)(=O)N1CSc1nc2ccccc2o1 (configuration not stated)
inactive | 350 | O=C(O)c1ccccc1S(=O)(=O)CN1C(=O)C(Cc2ccccc2)N(Cc2ccccc2)S1(=O)=O (configuration not stated)

From ChEMBL document CHEMBL1131819, “Human chymase inhibitors based on the 1,2,5-thiadiazolidin-3-one 1,1 dioxide scaffold” (Bioorg Med Chem Lett, 1999)
